Data as given in US20250296971A1, “GASTRIC INHIBITORY PEPTIDE RECEPTOR LIGANDS” (priority 2021, published 2025).
*1 amine or outer side, *2 acyl side, *3 side chain or, on linkers, in order; H or OH if unused. Where a SMILES comes first, the peptide text is derived from it. Bridges are numbered along the chain shown (N, C = ends). [ ]: non-standard residue; d: D form. Pro(4,4-F2) = O=C(O)[C@@H]1CC(F)(F)CN1; 1Nal = N[C@@H](Cc1cccc2ccccc12)C(=O)O; mXylylene = c1cc(C[*:1])cc(C[*:2])c1; pXylylene = c1cc(C[*:2])ccc1C[*:1]; Pen = CC(C)(S)[C@H](N)C(=O)O; Aib = CC(C)(N)C(=O)O

Target: T1, GIPR (CHO-K1-hGIPR cells) (Homo sapiens, UniProt P48546)
T1 construct: host or cells: CHO-K1
T1 sequence (P48546 22-466): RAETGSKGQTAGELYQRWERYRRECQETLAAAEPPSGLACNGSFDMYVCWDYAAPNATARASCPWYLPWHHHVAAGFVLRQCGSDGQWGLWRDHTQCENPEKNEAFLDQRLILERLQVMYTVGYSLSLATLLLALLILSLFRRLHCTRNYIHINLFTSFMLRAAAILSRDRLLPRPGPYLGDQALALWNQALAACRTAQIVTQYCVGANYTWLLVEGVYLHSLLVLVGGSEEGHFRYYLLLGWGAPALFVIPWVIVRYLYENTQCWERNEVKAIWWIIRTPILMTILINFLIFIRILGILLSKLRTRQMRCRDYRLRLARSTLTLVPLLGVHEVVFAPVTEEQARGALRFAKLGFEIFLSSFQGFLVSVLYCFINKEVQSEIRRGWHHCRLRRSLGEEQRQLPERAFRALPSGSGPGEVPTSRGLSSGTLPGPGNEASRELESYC
Test: FACS binding assay
Details: competition with 20 nM GIP-057, 4° C. for 1 hour, read-out: pIC50 Category (converted)
How it was run: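 CHO-K1 cells expressing human GIPR, washed in PBS/1% FCS, then stained with 1 μg/mL APC-streptavidin for 30 min on ice.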

CC[C@H](C)[C@@H]1NC(=O)[C@H](CC(C)C)NC(=O)[C@H](C)NC(=O)[C@@H](NC(=O)[C@H](CC(C)C)NC(=O)[C@H](CCC(=O)O)NC(=O)[C@@H]2CCCN2C(=O)[C@H](Cc2c[nH]c3ccccc23)NC(C)=O)CSCc2cccc(c2)CSC[C@@H](C(N)=O)NC1=O [GIP-325, Ac-Trp-Pro-Glu-Leu-[Cys(3MeBn)-Ala-Leu-Ile-Cys]-NH2] (Ac-WPELCALIC-NH2; linker 5-9 via mXylylene)
IC50: > 1000 nM

CC[C@H](C)[C@@H]1NC(=O)[C@H](CC(C)C)NC(=O)[C@H](C)NC(=O)[C@@H](NC(=O)[C@H](CC(C)C)NC(=O)[C@H](CCC(=O)O)NC(=O)[C@@H]2CCCN2C(C)=O)CSCc2cccc(c2)CSC[C@@H](C(N)=O)NC1=O [GIP-326, Ac-Pro-Glu-Leu-[Cys(3MeBn)-Ala-Leu-Ile-Cys]-NH2] (Ac-PELCALIC-NH2; linker 4-8 via mXylylene)
IC50: > 1000 nM

CC[C@H](C)[C@@H]1NC(=O)[C@H](CC(C)C)NC(=O)[C@H](C)NC(=O)[C@@H](NC(=O)[C@H](CC(C)C)NC(=O)[C@H](CCC(=O)O)NC(C)=O)CSCc2cccc(c2)CSC[C@@H](C(N)=O)NC1=O [GIP-327, Ac-Glu-Leu-[Cys(3MeBn)-Ala-Leu-Ile-Cys]-NH2] (Ac-ELCALIC-NH2; linker 3-7 via mXylylene)
IC50: > 1000 nM

CC[C@H](C)[C@@H]1NC(=O)[C@H](CC(C)C)NC(=O)[C@H](C)NC(=O)[C@@H](NC(=O)[C@H](CC(C)C)NC(=O)[C@H](CCC(=O)O)NC(=O)[C@H]2CCCN2C(=O)[C@H](Cc2c[nH]c3ccccc23)NC(=O)[C@H](Cc2c[nH]c3ccccc23)NC(=O)[C@H](CC(=O)O)NC(=O)[C@H](Cc2ccc(O)cc2)NC(=O)[C@@H](N)CCSC)CSCc2cccc(c2)CSC[C@@H](C(N)=O)NC1=O [GIP-328, H-Met-Tyr-Asp-Trp-Trp-pro-Glu-Leu-[Cys(3MeBn)-Ala-Leu-Ile-Cys]-NH2] (H-MYDWW[dP]ELCALIC-NH2; linker 9-13 via mXylylene)
IC50: > 1000 nM

CC[C@H](C)[C@@H]1NC(=O)[C@H](CC(C)C)NC(=O)[C@H](C)NC(=O)[C@@H](NC(=O)[C@H](CC(C)C)NC(=O)[C@H](CCC(=O)O)NC(=O)[C@@H]2CCCN2C(=O)[C@@H](Cc2c[nH]c3ccccc23)NC(=O)[C@H](Cc2c[nH]c3ccccc23)NC(=O)[C@H](CC(=O)O)NC(=O)[C@H](Cc2ccc(O)cc2)NC(=O)[C@@H](N)CCSC)CSCc2cccc(c2)CSC[C@@H](C(N)=O)NC1=O [GIP-329, H-Met-Tyr-Asp-Trp-trp-Pro-Glu-Leu-[Cys(3MeBn)-Ala-Leu-Ile-Cys]-NH2] (H-MYDW[dW]PELCALIC-NH2; linker 9-13 via mXylylene)
IC50: > 1000 nM

CC[C@H](C)[C@@H]1NC(=O)[C@@H](CC(C)C)NC(=O)[C@H](C)NC(=O)[C@@H](NC(=O)[C@H](CC(C)C)NC(=O)[C@H](CCC(=O)O)NC(=O)[C@@H]2CCCN2C(=O)[C@H](Cc2c[nH]c3ccccc23)NC(=O)[C@H](Cc2c[nH]c3ccccc23)NC(=O)[C@H](CC(=O)O)NC(=O)[C@H](Cc2ccc(O)cc2)NC(=O)[C@@H](N)CCSC)CSCc2cccc(c2)CSC[C@@H](C(N)=O)NC1=O [GIP-330] (H-MYDWWPELCA[dL]IC-NH2; linker 9-13 via mXylylene)
IC50: > 1000 nM

CC[C@H](C)[C@@H]1NC(=O)[C@H](CC(C)C)NC(=O)[C@H](C)NC(=O)[C@@H](NC(=O)[C@H](CC(C)C)NC(=O)[C@H](CCC(=O)O)NC(=O)[C@@H]2CCCN2C(=O)[C@H](Cc2c[nH]c3ccccc23)NC(=O)[C@H](Cc2c[nH]c3ccccc23)NC(=O)[C@H](CC(=O)O)NC(=O)[C@H](Cc2ccc(O)cc2)NC(=O)[C@@H](N)CCSC)CSCc2ccc(cc2)CSC[C@@H](C(N)=O)NC1=O [GIP-331] (H-MYDWWPELCALIC-NH2; linker 9-13 via pXylylene)
IC50: > 1000 nM

CC[C@H](C)[C@@H]1NC(=O)[C@H](CC(C)C)NC(=O)[C@H](C)NC(=O)[C@@H](NC(=O)[C@H](CC(C)C)NC(=O)[C@H](CCC(=O)O)NC(=O)[C@@H]2CCCN2C(=O)[C@H](Cc2c[nH]c3ccccc23)NC(=O)[C@H](Cc2c[nH]c3ccccc23)NC(=O)[C@H](C)NC(=O)[C@H](Cc2ccc(O)cc2)NC(=O)[C@@H](N)CCSC)CSCc2cccc(c2)CSC[C@@H](C(N)=O)NC1=O [GIP-332] (H-MYAWWPELCALIC-NH2; linker 9-13 via mXylylene)
IC50: > 1000 nM

CC[C@H](C)[C@@H]1NC(=O)[C@H](CC(C)C)NC(=O)[C@H](C)NC(=O)[C@@H](NC(=O)[C@H](CC(C)C)NC(=O)[C@H](CCC(=O)O)NC(=O)[C@@H]2CCCN2C(=O)[C@H](Cc2c[nH]c3ccccc23)NC(=O)[C@H](C)NC(=O)[C@H](CC(=O)O)NC(=O)[C@H](Cc2ccc(O)cc2)NC(=O)[C@@H](N)CCSC)CSCc2cccc(c2)CSC[C@@H](C(N)=O)NC1=O [GIP-333] (H-MYDAWPELCALIC-NH2; linker 9-13 via mXylylene)
IC50: > 1000 nM

CC[C@H](C)[C@@H]1NC(=O)[C@H](CC(C)C)NC(=O)[C@H](C)NC(=O)[C@@H](NC(=O)[C@H](CC(C)C)NC(=O)[C@H](CCC(=O)O)NC(=O)[C@@H]2CCCN2C(=O)[C@H](C)NC(=O)[C@H](Cc2c[nH]c3ccccc23)NC(=O)[C@H](CC(=O)O)NC(=O)[C@H](Cc2ccc(O)cc2)NC(=O)[C@@H](N)CCSC)CSCc2cccc(c2)CSC[C@@H](C(N)=O)NC1=O [GIP-334] (H-MYDWAPELCALIC-NH2; linker 9-13 via mXylylene)
IC50: > 1000 nM

CC[C@H](C)[C@@H]1NC(=O)[C@H](CC(C)C)NC(=O)[C@H](C)NC(=O)[C@@H](NC(=O)[C@H](CC(C)C)NC(=O)[C@H](C)NC(=O)[C@@H]2CCCN2C(=O)[C@H](Cc2c[nH]c3ccccc23)NC(=O)[C@H](Cc2c[nH]c3ccccc23)NC(=O)[C@H](CC(=O)O)NC(=O)[C@H](Cc2ccc(O)cc2)NC(=O)[C@@H](N)CCSC)CSCc2cccc(c2)CSC[C@@H](C(N)=O)NC1=O [GIP-335] (H-MYDWWPALCALIC-NH2; linker 9-13 via mXylylene)
IC50: > 1000 nM

CC[C@H](C)[C@@H]1NC(=O)[C@H](CC(C)C)NC(=O)[C@H](C)NC(=O)[C@@H](NC(=O)[C@H](C)NC(=O)[C@H](CCC(=O)O)NC(=O)[C@@H]2CCCN2C(=O)[C@H](Cc2c[nH]c3ccccc23)NC(=O)[C@H](Cc2c[nH]c3ccccc23)NC(=O)[C@H](CC(=O)O)NC(=O)[C@H](Cc2ccc(O)cc2)NC(=O)[C@@H](N)CCSC)CSCc2cccc(c2)CSC[C@@H](C(N)=O)NC1=O [GIP-336] (H-MYDWWPEACALIC-NH2; linker 9-13 via mXylylene)
IC50: > 1000 nM

CSCC[C@H](N)C(=O)N[C@@H](Cc1ccc(O)cc1)C(=O)N[C@@H](CC(=O)O)C(=O)N[C@@H](Cc1c[nH]c2ccccc12)C(=O)N[C@@H](Cc1c[nH]c2ccccc12)C(=O)N1CCC[C@H]1C(=O)N[C@@H](CCC(=O)O)C(=O)N[C@@H](CC(C)C)C(=O)N[C@H]1CSCc2cccc(c2)CSC[C@@H](C(N)=O)NC(=O)[C@H](C)NC(=O)[C@H](CC(C)C)NC(=O)[C@H](C)NC1=O [GIP-337] (H-MYDWWPELCALAC-NH2; linker 9-13 via mXylylene)
IC50: > 1000 nM

CC[C@H](C)[C@@H]1NC(=O)[C@H](CC(C)C)NC(=O)C(C)(C)NC(=O)[C@@H](NC(=O)[C@H](CC(C)C)NC(=O)[C@H](CCC(=O)O)NC(=O)[C@@H]2CCCN2C(=O)[C@H](Cc2c[nH]c3ccccc23)NC(=O)[C@H](Cc2c[nH]c3ccccc23)NC(=O)[C@H](CC(=O)O)NC(C)=O)C(C)(C)SCc2cccc(c2)CSC[C@@H](C(N)=O)NC1=O [GIP-338, Ac-Asp-Trp-Trp-Pro-Glu-Leu-[Pen(3MeBn)-Aib-Leu-Ile-Cys]-NH2] (Ac-DWWPEL[Pen][Aib]LIC-NH2; linker 7-11 via mXylylene)
IC50: > 1000 nM

CC[C@H](C)[C@@H]1NC(=O)[C@H](CC(C)C)NC(=O)C(C)(C)NC(=O)[C@@H](NC(=O)[C@H](CC(C)C)NC(=O)[C@H](CCC(=O)O)NC(=O)[C@@H]2CCCN2C(=O)[C@H](Cc2c[nH]c3ccccc23)NC(=O)[C@H](Cc2c[nH]c3ccccc23)NC(=O)[C@H](CC(=O)O)NC(C)=O)CSCc2cccc(c2)CSC(C)(C)[C@@H](C(N)=O)NC1=O [GIP-339, Ac-Asp-Trp-Trp-Pro-Glu-Leu-[Cys(3MeBn)-Aib-Leu-Ile-Pen]-NH2] (Ac-DWWPELC[Aib]LI[Pen]-NH2; linker 7-11 via mXylylene)
IC50: > 1000 nM

CC[C@H](C)[C@@H]1NC(=O)[C@H](CC(C)C)NC(=O)C(C)(C)NC(=O)[C@@H](NC(=O)[C@H](CC(N)=O)NC(=O)[C@H](CCC(=O)O)NC(=O)[C@@H]2CCCN2C(=O)[C@H](Cc2cccc3ccccc23)NC(=O)[C@H](Cc2c[nH]c3ccccc23)NC(=O)[C@H](CC(=O)O)NC(C)=O)CSCc2cccc(c2)CSC[C@@H](C(N)=O)NC1=O [GIP-340, Ac-Asp-Trp-1Ni-Pro-Glu-Asn-[Cys(3MeBn)-Aib-Leu-Ile-Cys]-NH2] (Ac-DW[1Nal]PENC[Aib]LIC-NH2; linker 7-11 via mXylylene)
IC50: > 1000 nM

CC[C@H](C)[C@@H]1NC(=O)[C@H](CC(C)C)NC(=O)C(C)(C)NC(=O)[C@@H](NC(=O)[C@H](CC(C)C)NC(=O)[C@H](CCC(=O)O)NC(=O)[C@@H]2CC(F)(F)CN2C(=O)[C@H](Cc2cccc3ccccc23)NC(=O)[C@H](Cc2c[nH]c3ccccc23)NC(=O)[C@H](CC(=O)O)NC(C)=O)CSCc2cccc(c2)CSC[C@@H](C(N)=O)NC1=O [GIP-341, Ac-Asp-Trp-1Ni-4Dfp-Glu-Leu-[Cys(3MeBn)-Aib-Leu-Ile-Cys]-NH2] (Ac-DW[1Nal][Pro(4,4-F2)]ELC[Aib]LIC-NH2; linker 7-11 via mXylylene)
IC50: > 1000 nM
